Source: ChEMBL document CHEMBL1123480, “Pyrazole derivatives. 5. Synthesis and antineoplastic activity of 3-(2-chloroethyl)-3,4-dihydro-4-oxopyrazolo[5,1-d]-1,2,3, 5-tetrazine-8-carboxamide and related compounds” (J Med Chem, 1986)
Calls of active or inactive are those of the source.

Legend:
L1210 = experiment: Antineoplastic activity against L1210 cell line; IA=Inactive; assay type: functional, cell-based; conditions: Mus musculus
Mus musculus = organism: Mus musculus; experiment: Antineoplastic activity against mammary adenocarcinoma M16c cell; IA=Inactive; assay type: functional
P388 = experiment: Antineoplastic activity against NCI P388 cell; IA=Inactive; assay type: functional, cell-based; conditions: Mus musculus

Measured: Activity

Cn1nnc2c(C(N)=O)cnn2c1=O
inactive: all assays above
